“And” between values parts separate entries of the source, which are not always exact repeats. Identical values can stand only once.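 Exposure lasted 48 hours, with cells grown in 96-well plates and compounds tested at five concentrations. The concentration for 50% growth inhibition is given as GI50. TGI marks complete inhibition of growth.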
Assays:
Assay in all cases: DTP human tumour cell line panel, 48 h
[1] = test system: CCRF-CEM leukemia
[2] = test system: NCI/ADR-RES ovarian
[3] = test system: EKVX NSCLC
[4] = test system: HOP-62 NSCLC
[5] = test system: OVCAR-3 ovarian
[6] = test system: MCF7 breast
[7] = test system: K-562 leukemia
[8] = test system: SW-620 colon
[9] = test system: ACHN renal
[10] = test system: OVCAR-4 ovarian

SMILES | GI50 [1] | TGI [1] | GI50 [2] | TGI [2] | GI50 [3] | TGI [3] | GI50 [4] | TGI [4] | GI50 [5] | TGI [5] | GI50 [6] [µM] | TGI [6] [µM] | GI50 [7] | TGI [7] | GI50 [8] | TGI [8] | GI50 [9] | TGI [9] | GI50 [10] | TGI [10]
O=C(/C=C/c1cccs1)c1ccc(Nc2nc(Nc3ccc(F)cc3)nc(Nc3ccc(F)cc3)n2)cc1 | 40.9 µM | > 100 µM | 31.3 µM | > 100 µM | 34.3 µM | > 100 µM | > 100 µM | > 100 µM | 17.7 µM | 35.3 µM | 14 | 46.2 | 29.9 µM | > 100 µM | 28.3 µM | 96.4 µM | 86.5 µM | > 100 µM | 17.7 µM | 46.2 µM
O=C1/C(=C/c2ccccc2F)CNC/C1=C\c1ccccc1F | 0.193 µM and 0.314 µM | 3.38 µM and 1.61 µM | 0.665 µM and 0.699 µM | 6.57 µM and 12.8 µM | 0.775 µM and 1.9 µM | 2.58 µM and 5.26 µM | 0.53 µM and 0.33 µM | 2.65 µM and 1.01 µM | 0.89 µM and 0.309 µM | 3.22 µM and 0.805 µM | 0.305 | 1.39 | 0.27 µM and 0.341 µM | 2.27 µM and 2.63 µM | 0.236 µM and 0.245 µM | 3.49 µM and 0.647 µM | 4.86 µM and 0.779 µM | 8.55 µM and 2.58 µM | 0.596 µM and 0.385 µM | 2.98 µM and 1.81 µM
C/C(=C\c1ccn(-c2ccc(N)c(F)c2)n1)[C@@H]1C[C@@H]2O[C@]2(C)CCC[C@H](C)[C@H](O)[C@@H](C)C(=O)C(C)(C)[C@@H](O)CC(=O)O1 | 0.0114 µM | > 50 µM | 0.0943 µM | > 50 µM | 0.171 µM | > 50 µM | 0.0245 µM | > 50 µM | 0.00815 µM | 0.0747 µM | 0.00601 | > 50 | 0.00912 µM | > 50 µM | 0.0103 µM | > 50 µM | 0.234 µM | > 50 µM | 0.0964 µM | > 50 µM
COc1ccc(-c2cc(-c3ccccc3)nc(N3CCN(CCNc4ccnc5cc(Cl)ccc45)CC3)n2)cc1 | 2.19 µM | > 100 µM | 1.72 µM | 4.04 µM | 19 µM | 48.3 µM | 1.97 µM | 4.04 µM | 1.89 µM | 3.69 µM | 1.71 | 3.45 | – | – | 1.73 µM | 3.47 µM | 3.8 µM | 14.4 µM | 1.87 µM | 4.05 µM
Nc1ncnc2c1ncn2CC(O)C(=O)O (stereo not drawn) | – | > 100 µM | – | > 100 µM | – | > 100 µM | – | > 100 µM | – | > 100 µM | – | > 100 | – | > 100 µM | – | > 100 µM | – | > 100 µM | – | > 100 µM
CCCCCCCCCCC(O)[C@H]1CCC(C2CC[C@H]([C@H](O)CCCCCCCCCCC(O)CC3=CC(C)OC3=O)O2)O1 (stereo partly drawn) | – | 5.37 µM | – | 2.11 µM | 2.09 µM | – | – | 4.89 µM and 5.88 µM | 0.674 µM | 4.01 µM and 3.32 µM | – | 4.44 | < 0.01 µM | 4.55 µM | 2.51 µM | 6.83 µM and 12 µM | – | 2.9 µM | – | 11.7 µM
O=Cc1cn(Cc2cccc(Cl)c2)c2ccccc12 | 9.99 µM | 50.3 µM | 7.99 µM | 28.2 µM | 9.9 µM | 25 µM | 2.57 µM | 19.5 µM | 2.7 µM | 16.6 µM | 1.85 | 19.4 | 2.97 µM | > 56.7 µM | 7.37 µM | 23.1 µM | 12.9 µM | 26.8 µM | 2.88 µM | 18.3 µM
Cc1ccc(NC(=O)c2cc3ccccc3c(N=Nc3ccccc3O)c2O)c(C)c1 | – | 4.75 µM | – | 5.71 µM | – | 17.3 µM | – | 12.1 µM | – | 3.98 µM | – | 13.7 | – | > 100 µM | – | 11.8 µM | – | 16.4 µM | – | 11.6 µM
COc1ccc(C/C(C)=C(\c2ccc(OCCN3CCOCC3)cc2)c2ccc(OC(=O)Cc3ccccc3)cc2)cc1 | 0.813 µM | 8.27 µM | 0.961 µM | 12.5 µM | 0.851 µM | 3.49 µM | 0.621 µM | 1.17 µM | 0.766 µM | 1.66 µM | 0.574 | 1.54 | 0.456 µM | 1.66 µM | 0.742 µM | 1.8 µM | 0.99 µM | 3.38 µM | 1.03 µM | 10.2 µM
CC(C)(O)C1CCC(Nc2ccc3ncc(-c4cccc(C(F)(F)F)c4)n3n2)CC1 (stereo not drawn) | 0.946 µM | 7.89 µM | 2.7 µM | 19.5 µM | 3.82 µM | > 100 µM | 2.37 µM | 11.8 µM | 2.99 µM | 13.3 µM | 2.75 | 12.5 | 2.27 µM | 11.9 µM | 2.91 µM | 15 µM | 2.12 µM | 12.3 µM | 2.62 µM | 12.5 µM
NC1=C(Br)C(=O)c2ncccc2C1=O | – | 13.7 µM | 0.987 µM | 6.12 µM | – | 3.02 µM | – | 1.67 µM | – | 2.33 µM | 0.367 | 1.99 | – | 1.01 µM | – | 1.84 µM | – | 1.62 µM | – | 2.49 µM
CC(C)[C@@]12C[C@@H](OC(=O)COC(=O)/C=C/c3ccccc3)[C@@](C)(O1)[C@@H]1CC[C@@H](C)[C@H]1[C@@H]2OC(=O)/C=C/c1ccccc1 | > 100 µM | > 100 µM | 0.569 µM | > 100 µM | > 100 µM | > 100 µM | > 100 µM | > 100 µM | > 100 µM | > 100 µM | > 100 | > 100 | > 78.1 µM | > 100 µM | > 100 µM | > 100 µM | 0.0591 µM | 0.443 µM | > 100 µM | > 100 µM
C=CC1=C[C@@H]2[C@@H]3O[C@]4(CC[C@H](O4)[C@@H](C)C[C@@H](O)C3=O)C[C@H](O)C3=NCC[C@@]32CC1 | < 0.00333 µM | > 33.3 µM | < 0.00333 µM | 0.00511 µM | < 0.00333 µM | 0.00345 µM | < 0.00333 µM | 0.0075 µM | < 0.00333 µM | < 0.00333 µM | < 0.00333 | < 0.00333 | < 0.00333 µM | > 33.3 µM | < 0.00333 µM | 0.00523 µM | < 0.00333 µM | < 0.00333 µM | < 0.00333 µM | 0.00522 µM
